Assay results taken from ChEMBL document CHEMBL1201862, “PubChem BioAssay data set” (2004).
Calls of active or inactive are those of the source.

Columns and labels:
[1] = biological target: T1, Tyrosine-protein phosphatase non-receptor type 22 (Homo sapiens, UniProt Q9Y2R2); format: functional
T1 sequence (Q9Y2R2 whole entry): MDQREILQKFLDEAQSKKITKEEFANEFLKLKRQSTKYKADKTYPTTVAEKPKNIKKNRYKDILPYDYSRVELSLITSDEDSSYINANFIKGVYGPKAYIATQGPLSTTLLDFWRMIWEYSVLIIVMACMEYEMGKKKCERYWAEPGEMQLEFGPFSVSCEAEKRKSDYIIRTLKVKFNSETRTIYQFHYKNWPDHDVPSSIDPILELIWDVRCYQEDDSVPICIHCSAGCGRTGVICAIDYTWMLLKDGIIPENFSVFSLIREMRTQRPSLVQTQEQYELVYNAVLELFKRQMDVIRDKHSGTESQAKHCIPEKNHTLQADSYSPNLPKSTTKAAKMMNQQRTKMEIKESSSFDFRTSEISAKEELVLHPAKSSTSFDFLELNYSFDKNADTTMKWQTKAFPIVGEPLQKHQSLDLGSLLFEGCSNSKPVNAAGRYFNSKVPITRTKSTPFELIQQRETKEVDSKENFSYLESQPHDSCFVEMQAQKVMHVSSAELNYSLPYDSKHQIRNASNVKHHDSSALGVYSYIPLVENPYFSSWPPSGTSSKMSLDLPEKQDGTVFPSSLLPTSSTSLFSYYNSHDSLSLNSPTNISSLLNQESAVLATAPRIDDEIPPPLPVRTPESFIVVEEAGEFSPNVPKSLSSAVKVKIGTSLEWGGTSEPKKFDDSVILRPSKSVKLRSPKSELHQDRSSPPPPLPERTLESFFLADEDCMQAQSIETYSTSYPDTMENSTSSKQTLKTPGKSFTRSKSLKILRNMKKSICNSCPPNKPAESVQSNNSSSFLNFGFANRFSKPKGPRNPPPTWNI

[2] = biological target: T1, Tyrosine-protein phosphatase non-receptor type 22; format: functional; remark: listed apart in the source
[3] = biological target: T2, Tyrosine-protein phosphatase non-receptor type 7 (Homo sapiens, UniProt P35236); format: functional
T2 sequence (P35236 whole entry): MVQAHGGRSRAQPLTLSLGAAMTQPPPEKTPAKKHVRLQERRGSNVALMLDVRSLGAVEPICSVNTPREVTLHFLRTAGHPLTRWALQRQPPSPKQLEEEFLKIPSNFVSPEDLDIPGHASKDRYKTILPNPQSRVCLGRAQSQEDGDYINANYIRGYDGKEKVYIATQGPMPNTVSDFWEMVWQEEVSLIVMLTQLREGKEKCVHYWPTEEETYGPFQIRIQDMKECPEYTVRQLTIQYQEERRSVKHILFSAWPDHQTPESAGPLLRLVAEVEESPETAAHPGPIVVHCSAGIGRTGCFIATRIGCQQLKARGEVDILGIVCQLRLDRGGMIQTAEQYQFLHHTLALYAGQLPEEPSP

[4] = biological target: T3, Type-1 angiotensin II receptor (Homo sapiens, UniProt P30556); assay: AT1 receptor agonists, dose response, selectivity assay for APJ receptor agonist project, cell-based, uHTS hits (AID 488865); format: functional;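 note: beta-arrestin recruitment to AT1 measured by enzyme fragment complementation luminescence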
T3 sequence (P30556 whole entry): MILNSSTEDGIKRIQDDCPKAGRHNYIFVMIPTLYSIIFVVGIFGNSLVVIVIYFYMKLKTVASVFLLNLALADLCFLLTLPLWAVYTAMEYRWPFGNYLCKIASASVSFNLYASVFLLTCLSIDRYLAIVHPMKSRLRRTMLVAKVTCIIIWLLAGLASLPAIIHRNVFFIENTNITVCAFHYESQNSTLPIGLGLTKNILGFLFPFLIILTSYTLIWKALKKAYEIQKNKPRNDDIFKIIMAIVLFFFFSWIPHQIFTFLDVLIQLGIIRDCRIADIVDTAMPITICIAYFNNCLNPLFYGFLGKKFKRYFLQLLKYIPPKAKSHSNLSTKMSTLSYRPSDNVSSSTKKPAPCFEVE

[5] = biological target: T4, Ubiquitin-conjugating enzyme E2 N (Homo sapiens, UniProt P61088); format: functional
T4 sequence (P61088 whole entry): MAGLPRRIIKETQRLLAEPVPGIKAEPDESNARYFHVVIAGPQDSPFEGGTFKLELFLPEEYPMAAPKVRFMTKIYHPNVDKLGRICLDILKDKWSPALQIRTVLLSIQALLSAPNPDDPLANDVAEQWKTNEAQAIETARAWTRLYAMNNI

Bcl-2-related protein A1 = biological target: T5, Bcl-2-related protein A1 (Mus musculus, UniProt Q07440); format: functional;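 note: confirmatory dose–response counterscreen on Bfl-1, used to check hits from a UBC13 polyubiquitin inhibitor campaign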
T5 sequence (Q07440 whole entry): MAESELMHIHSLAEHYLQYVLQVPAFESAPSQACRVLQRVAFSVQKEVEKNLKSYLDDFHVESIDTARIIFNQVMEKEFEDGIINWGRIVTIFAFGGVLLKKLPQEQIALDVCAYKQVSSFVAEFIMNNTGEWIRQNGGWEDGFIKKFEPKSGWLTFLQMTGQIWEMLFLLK

[6] = biological target: T4, Ubiquitin-conjugating enzyme E2 N; format: functional; remark: listed apart in the source
[7] = biological target: T6, E3 ubiquitin-protein ligase XIAP (Homo sapiens, UniProt P98170); assay: Counter Screen using XIAP-Bir3 for Chemical Antagonists of Bir1/2 domains of IAP-family anti-apoptotic proteins. [Related pubchem assays (depositor defined):AID1018, AID1449, AID1514, AID1638, AID1749, AID1750, AID488957, AID488963]
[8] = biological target: T6, E3 ubiquitin-protein ligase XIAP; assay: XIAP antagonists, biochemical, IAP family, fluorescence polarization (AID 1018); format: functional
[9] = Shn3 3'UTR reporter inhibitors, dose response, cell-based, Clone20 osteoblasts, firefly luciferase, cherry-picked (AID 624132); format: functional;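 note: firefly luciferase luminescence from reporter carrying the Shn3 3'UTR in osteoblasts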
BJ [10] = assay: cells; format: functional, cell-based; details: Homo sapiens
[11] = cytotoxicity toward DRD oncogenic fibroblasts, dose response, cell-based, non-viral oncogenic, luminescence (AID 1934); format: functional; details: Homo sapiens
[12] = biological target: Luciferin 4-monooxygenase (Photinus pyralis, UniProt P08659); assay: firefly luciferase enzyme inhibitors, dose response, biochemical, luminescence (AID 1891)
Jurkat = assay: antigen receptor-induced NF-kB inhibitors, dose response, Jurkat, luciferase reporter, luminescence, B- and T-cell (AID 489004); format: functional, cell-based; details: Homo sapiens;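 note: NF-kB luciferase reporter Jurkat cells stimulated with PMA plus ionomycin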
[13] = Luminescence-based counterscreen assay for KLF5 inhibitors: dose response cell-based high throughput screening assay to identify cytotoxic compounds using the IEC-6 intestinal epithelial cell line. [Related pubchem assays: 1700 (Primary screen.), 1834 (Confirmation screen.), 1858 (Summary AID.), 1905 (Counterscreen.)]; format: functional
[14] = A Cell Based Secondary Assay To Explore Cytotoxicity of Compounds that Sensitize Mycobacterium Tuberculosis to Beta-Lactam Antibiotics.; format: functional
[15] = control 3'UTR Renilla luciferase suppression, dose response, counter-screen for Shn3 inhibitor project, cell-based, Clone20-Shn3RL, cherry-picked (AID 624133); format: functional
[16] = HepG2 cell cytotoxicity, dose response, cytotoxicity control for Shn3 inhibitor project, CellTiter-Glo, cherry-picked (AID 624134); format: functional, cell-based
[17] = off-target signal loss in HeLa-CEM21 co-culture – HeLa F-luc CTL cells, cherry-picked, counter-screen for HIV-1 Env fusion inhibitor project, dose response (AID 652040); format: functional, cell-based;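 note: potency for signal decrease marking cytotoxic or nonspecific inhibition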
[18] = inhibitors of HIV Env-driven cell fusion, dose response, cherry-pick (AID 652057); format: functional, cell-based
[19] = Luminescence Cell-Based Dose Confirmation HTS to Identify Inhibitors of Platelet Dense Granule Release. [Related pubchem assays: 1663 (Primary HTS), 1678 (Summary of Project)]; format: functional
[20] = reduction of Shn3 3'UTR firefly luciferase signal, dose response, Schnurri-3 inhibitor project, cell-based, Clone20 osteoblasts, cherry-pick, set 2 (AID 720490); format: functional;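 note: actives lower the luminescence signal as inhibitors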
[21] = CEM21 lymphoblast cell cytotoxicity, dose response, cytotoxicity control for viral fusion inhibitor project, CellTiter-Glo luminescence, cherry-picked (AID 652042); format: functional, cell-based;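 note: potency for signal decrease meaning cytotoxicity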
[22] = inhibitors of clade B AD8 Env fusion, dose response, cell-based, cherry-pick (AID 652062); format: functional;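 note: luciferase signal from cell-cell fusion driven by HIV-1 clade B AD8 Env; potency is for inhibitors of fusion seen as a drop in luminescence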
BJ [23] = assay: cytotoxicity toward BJ-TERT-LT-ST fibroblasts, dose response, cell-based, RAS-independent, luminescence (AID 1935); format: functional; details: Homo sapiens;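 note: BJ fibroblasts immortalized with TERT plus LT and ST oncogenes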
BJ [24] = assay: cytotoxicity toward Ras-transformed BJeLR fibroblasts, dose response, cell-based, alamar blue fluorescence, cherrypicked samples (AID 2631); format: functional; details: Homo sapiens;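 note: confirmatory dose-response assay in RAS-dependent BJ fibroblasts engineered with TERT, LT and ST, with cytotoxicity read by fluorescence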
[25] = ZM109 Env clade C HIV-1 fusion inhibitors, dose response, HeLa effector, CEM target cells, luciferase, cherry-pick (AID 652058); format: functional, cell-based
[26] = cytotoxicity in HEK-293T NF-kB-Luc cells, dose response, cytotoxicity control for B/T-cell NF-kB inhibitor project, cell-based, uHTS hits (AID 489019); format: functional;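 note: IC50 reflects cytotoxicity as loss of cell viability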
[27] = biological target: T7, Endoribonuclease toxin MazF (Escherichia coli K-12, UniProt P0AE70); assay: fluorescent RNA oligo signal without MazF, dose response, counter-screen for MazEF activator project, biochemical, fluorescence, single-stranded RNase substrate (AID 588502); format: functional
T7 sequence (P0AE70 whole entry): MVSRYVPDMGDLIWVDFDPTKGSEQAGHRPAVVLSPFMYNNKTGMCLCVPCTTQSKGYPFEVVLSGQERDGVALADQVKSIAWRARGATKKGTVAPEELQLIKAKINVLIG

[28] = biological target: T7, Endoribonuclease toxin MazF; assay: MazF toxin RNase activators, dose response, biochemical, fluorescence, single-stranded RNA substrate, uHTS hits (AID 588481); format: functional
[29] = biological target: Lysine-specific demethylase 4C (Homo sapiens, UniProt Q9H3R0); assay: GASC-1 (JMJD2C) histone demethylase inhibitors, dose response, biochemical, DELFIA europium, cherry-picked samples (AID 488835); format: functional
Sequence of Lysine-specific demethylase 4C (Q9H3R0 whole entry): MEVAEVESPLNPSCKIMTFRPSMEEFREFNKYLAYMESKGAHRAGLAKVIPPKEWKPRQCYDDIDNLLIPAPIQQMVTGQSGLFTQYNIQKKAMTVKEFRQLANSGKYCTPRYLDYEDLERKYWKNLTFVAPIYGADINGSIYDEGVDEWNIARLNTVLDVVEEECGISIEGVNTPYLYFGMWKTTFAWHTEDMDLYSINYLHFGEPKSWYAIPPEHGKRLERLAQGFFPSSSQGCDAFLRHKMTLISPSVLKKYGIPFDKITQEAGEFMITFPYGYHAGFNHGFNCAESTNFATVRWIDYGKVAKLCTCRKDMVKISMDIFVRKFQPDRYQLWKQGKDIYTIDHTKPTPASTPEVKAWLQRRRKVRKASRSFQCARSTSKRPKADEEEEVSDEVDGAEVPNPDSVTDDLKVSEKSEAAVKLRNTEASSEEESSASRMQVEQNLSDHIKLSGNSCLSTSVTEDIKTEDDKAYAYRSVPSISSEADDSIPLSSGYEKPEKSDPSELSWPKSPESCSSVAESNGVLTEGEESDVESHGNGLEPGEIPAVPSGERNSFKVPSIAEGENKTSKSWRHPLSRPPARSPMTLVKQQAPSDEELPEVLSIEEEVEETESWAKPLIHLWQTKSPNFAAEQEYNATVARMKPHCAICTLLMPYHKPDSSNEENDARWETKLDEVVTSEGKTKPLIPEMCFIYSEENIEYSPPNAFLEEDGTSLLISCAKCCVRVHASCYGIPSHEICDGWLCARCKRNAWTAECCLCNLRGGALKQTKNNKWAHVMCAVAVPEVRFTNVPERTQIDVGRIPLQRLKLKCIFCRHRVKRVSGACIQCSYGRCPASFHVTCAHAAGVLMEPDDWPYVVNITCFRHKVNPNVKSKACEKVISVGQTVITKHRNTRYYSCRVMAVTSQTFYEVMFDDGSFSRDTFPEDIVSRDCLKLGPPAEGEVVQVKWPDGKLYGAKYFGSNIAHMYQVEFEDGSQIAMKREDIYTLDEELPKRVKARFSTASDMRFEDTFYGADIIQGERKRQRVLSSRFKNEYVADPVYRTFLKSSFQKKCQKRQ

T6 sequence (P98170 whole entry): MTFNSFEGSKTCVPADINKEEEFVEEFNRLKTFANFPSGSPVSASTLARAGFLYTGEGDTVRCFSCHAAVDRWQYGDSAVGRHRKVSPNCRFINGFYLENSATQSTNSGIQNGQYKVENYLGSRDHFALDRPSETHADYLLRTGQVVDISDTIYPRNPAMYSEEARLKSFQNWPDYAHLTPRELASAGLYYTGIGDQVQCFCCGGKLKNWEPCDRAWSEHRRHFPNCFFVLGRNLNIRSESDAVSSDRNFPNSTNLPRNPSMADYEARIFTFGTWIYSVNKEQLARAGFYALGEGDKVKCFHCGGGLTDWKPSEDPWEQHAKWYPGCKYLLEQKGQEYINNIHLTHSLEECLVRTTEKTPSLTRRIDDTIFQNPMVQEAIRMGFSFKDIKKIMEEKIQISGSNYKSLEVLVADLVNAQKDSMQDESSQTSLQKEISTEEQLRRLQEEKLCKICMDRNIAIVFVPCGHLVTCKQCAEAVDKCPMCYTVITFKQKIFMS
Sequence of Luciferin 4-monooxygenase (P08659 whole entry): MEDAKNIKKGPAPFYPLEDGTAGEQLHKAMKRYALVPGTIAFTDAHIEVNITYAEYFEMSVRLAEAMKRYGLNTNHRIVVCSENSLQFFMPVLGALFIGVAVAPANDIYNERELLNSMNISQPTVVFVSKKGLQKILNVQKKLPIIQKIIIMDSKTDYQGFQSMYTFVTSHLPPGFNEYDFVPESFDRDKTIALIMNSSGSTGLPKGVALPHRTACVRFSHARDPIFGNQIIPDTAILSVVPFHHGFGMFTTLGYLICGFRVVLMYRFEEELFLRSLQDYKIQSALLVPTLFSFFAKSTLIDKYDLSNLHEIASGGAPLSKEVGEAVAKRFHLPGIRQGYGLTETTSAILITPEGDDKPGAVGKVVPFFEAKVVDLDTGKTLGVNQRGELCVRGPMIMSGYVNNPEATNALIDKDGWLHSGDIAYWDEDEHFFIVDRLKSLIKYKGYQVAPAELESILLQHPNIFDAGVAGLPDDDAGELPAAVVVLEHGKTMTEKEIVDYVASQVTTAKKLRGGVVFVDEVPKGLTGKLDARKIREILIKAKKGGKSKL

Cc1noc(NS(=O)(=O)c2ccc(NC(=O)c3nn(-c4ccccc4)ccc3=O)cc2)c1C
IC50 [1]: > 79.4 µM (inactive)
IC50 [2]: > 79.4 µM (inactive)
IC50 [3]: > 79.4 µM (inactive)

CCOc1cccc2sc(N(CCCN(C)C)C(=O)c3ccc(S(=O)(=O)N(C)Cc4ccccc4)cc3)nc12
EC50 [4]: > 100 µM (inactive)
IC50 [5]: 8.12 µM (active)
IC50 (Bcl-2-related protein A1): > 20 µM (inactive)
IC50 [6]: 8.54 µM (active)

Cc1ccsc1/C=C(\C#N)C(=O)NCc1ccco1
IC50 [7]: > 100 µM (inactive)
IC50 [8]: > 100 µM (not active)

COc1ccc(C(=O)Nc2nc3ccccc3s2)c(OC)c1
AC50 [9]: 0.523 µM (active)
EC50 (BJ [10]): 5.76 µM (active)
EC50 [11]: 7.2 µM (active)
EC50 [12]: 0.241 µM (active)
IC50 (Jurkat): < 0.16 µM (active)
IC50 [13]: 7.69 µM (active)
CC50 [14]: 29.7 µM (active)
AC50 [15]: 43.8 µM (active)
AC50 [16]: 33.5 µM (active)
AC50 [17]: < 0.26 µM (active)
AC50 [18]: 0.757 µM (active)
EC50 [19]: 1.54 µM (active)
AC50 [20]: 0.45 µM (active)
AC50 [21]: 14.2 µM (active)
AC50 [22]: 0.664 µM (active)
EC50 (BJ [23]): 17.1 µM (active)
EC50 (BJ [24]): > 133 µM (inactive)
AC50 [25]: 6.04 µM (active)
IC50 [26]: > 80 µM (inactive)

CC1(C)OC(c2ccccc2)=C/C(=C/C=C2C(=O)NC(=S)NC2=O)O1
EC50 [27]: 13.9 µM (active)
EC50 [28]: 11 µM (active)
AC50 [29]: 11.6 µM (active)
